Laboratory results published in patent publication US20240199647A1, “ANTI-VIRAL COMPOUNDS” (Aligos Therapeutics, Inc., priority 2022, published 2024).
Where two headings read alike, the source gives them in different places.

How the values were obtained:
SARS-Cov-2 3CLpro = SARS-Cov-2 3CLpro (Severe acute respiratory syndrome coronavirus 2, UniProt P0DTD1); experiment: biochemical; details: Table A, class symbols
[1] = test system: human beta-coronavirus OC43; experiment: OC43 Coronavirus Assay in HeLa cells (antiviral, cytopathic effect, cell-titer-glo); type: cell-based; details: Table B, OC43 coronavirus in HeLa cells, read-out: EC50
[2] = test system: SARS-CoV-2 B.1.1.7 lineage; experiment: microbe, parasite or virus in culture; type: cell-based; details: Table C, SARS-CoV-2 B.1.1.7 in A549-dual_ACE2_TMPRSS2 cells, read-out: A549-dual_ACE2_TMPRSS2 (EC50)
[3] = test system: A549-dual_ACE2_TMPRSS2 cells; experiment: Toxicity testing in A549-dual_ACE2_TMPRSS2 cells without virus (MTS); details: read-out: A549-dual_ACE2_TMPRSS2 (CC50); Table C; A549-dual_ACE2_TMPRSS2 cells without virus, class symbols
[4] = test system: HeLa human cervical epithelial cells; experiment: Cytotoxicity in HeLa cells without addition of OC43 virus (in parallel); details: Table B; HeLa cells without OC43 virus, class symbols
[5] = test system: A549-dual_ACE2_TMPRSS2 cells; details: human
[6] = Toxicity testing in A549-dual_ACE2_TMPRSS2 cells without virus (MTS); details: human
[7] = Cytotoxicity in HeLa cells without addition of OC43 virus (in parallel); details: human, HeLa cells, without OC43 virus
in vitro = details: human
[8] = Betacoronavirus 1, OC43, HeLa, cells given as a bound
[9] = Severe acute respiratory syndrome coronavirus 2, cells given as a bound
[10] = Betacoronavirus 1, OC43, HeLa, class symbols
[11] = Severe acute respiratory syndrome coronavirus 2, class symbols

| SMILES | IC50 (SARS-Cov-2 3CLpro; read-out: SARS-Cov-2 (IC50)) [nM] | CC50 [4] [nM] | EC50 [2, 9] [nM] | CC50 at 6 days [7] [nM] | EC50 [1, 10] [nM] | CC50 (in vitro) [nM] | further results |
| --- | --- | --- | --- | --- | --- | --- | --- |
| Cc1nnn(C(CC2CC2)C(=O)N(C)[C@@H](CC2CC2)C(=O)N2C[C@@]3(C[C@H]2C#N)Oc2cc(F)cc(F)c2NC3=O)c1C (relative stereo) [Compound 118, ((R*)—N—((S)-1-((2R,5'S)-5′-cyano-5,7-difluoro-3-oxo-3,4-dihydrospiro[benzo[b][1,4]oxazine-2,3′-pyrrolidin]-1′-yl)-3-cyclopropyl-1-oxopropan-2-yl)-3-cyclopropyl-2-(4,5-dimethyl-1H-1,2,3-triazol-1-yl)-N-methylpropanamide] | 200 to 2000 | > 10000 | – | – | – | – | EC50 ([1]; cells given as a bound): > 10000 nM; EC50 ([2]; cells given as a bound): > 1000 nM; CC50 [3]: > 1000 nM |
| CC1NC(=O)[C@]2(C[C@@H](C#N)N(C(=O)[C@H](CC3CC3)N(C)C(=O)[C@H](CC3CC3)NC(=O)C(F)(F)F)C2)Oc2ccccc21 (single isomer, unassigned) [Compound 224, (S)—N—((S)-1-((2R,5R*,5'S)-5′-cyano-5-methyl-3-oxo-4,5-dihydro-3H-spiro[benzo[f][1,4]oxazepine-2,3′-pyrrolidin]-1′-yl)-3-cyclopropyl-1-oxopropan-2-yl)-3-cyclopropyl-N-methyl-2-(2,2,2-trifluoroacetamido)propanamide] | < 20 | > 10000 | – | – | – | – | EC50 ([1]; class symbols): < 100 nM |
| C[C@H](NC(=O)C(F)(F)F)C(=O)N(C)[C@@H](CC1CC1)C(=O)N1C[C@]2(C[C@H]1C#N)C(=O)NCC2Oc1ccccc1 (some centres unmarked) [Compound 94] | 20 to 200 | > 10000 | – | – | – | – | EC50 [1, 8]: > 10000 nM; EC50 ([2]; class symbols): 100 to 1000 nM; CC50 [5]: > 1000 nM |
| C[C@H](NC(=O)Oc1ccc(F)cc1)C(=O)N(C)[C@@H](CC1CC1)C(=O)N1C[C@@]2(C[C@H]1C#N)Oc1cc(F)cc(F)c1NC2=O [Compound 119, 4-fluorophenyl ((S)-1-(((S)-1-((2R,5'S)-5′-cyano-5,7-difluoro-3-oxo-3,4-dihydrospiro[benzo[b][1,4]oxazine-2,3′-pyrrolidin]-1′-yl)-3-cyclopropyl-1-oxopropan-2-yl)(methyl)amino)-1-oxopropan-2-yl)carbamate] | – | – | > 1000 | > 10000 | – | – | IC50 (SARS-Cov-2 3CLpro; SARS-Cov-2 (IC50)): < 20 nM; EC50 ([1]; Betacoronavirus 1, class symbols): 100 to 1000 nM; CC50 [6]: > 1000 nM |
| CN(C(=O)[C@H](CC(C)(C)C)NC(=O)C(F)(F)F)[C@@H](CC1CC1)C(=O)N1C[C@@]2(C[C@H]1C#N)Oc1cccnc1NC2=O [Compound 233] | < 20 | > 10000 | – | – | – | – | EC50 ([1]; class symbols): 100 to 1000 nM; EC50 ([2]; class symbols): < 100 nM; CC50 [5]: > 1000 nM |
| C[C@H](NC(=O)C(F)(F)F)C(=O)N(C)[C@@H](CC1CC1)C(=O)N1C[C@@]2(C[C@H]1C#N)Oc1cc(F)cc(F)c1NC2=O [Example 37, (S)—N—((S)-1-((2R,5'S)-5′-cyano-5,7-difluoro-3-oxo-3,4-dihydrospiro[benzo[b][1,4]oxazine-2,3′-pyrrolidin]-1′-yl)-3-cyclopropyl-1-oxopropan-2-yl)-N-methyl-2-(2,2,2-trifluoroacetamido)propanamide] | < 20 | – | – | > 10000 | < 100 | > 1000 | EC50 [2, 11]: 100 to 1000 nM |
| CC(C)C[C@@H](C(=O)N1C[C@]2(C[C@H]1C#N)C(=O)Nc1ccccc1N2C)N(C)C(=O)[C@H](C)NC(=O)C(F)(F)F [Example 42, (S)—N—((S)-1-((3R,5S)-5-cyano-1′-methyl-3′-oxo-3′,4′-dihydro-1′H-spiro[pyrrolidine-3,2′-quinoxalin]-1-yl)-4-methyl-1-oxopentan-2-yl)-N-methyl-2-(2,2,2-trifluoroacetamido) propanamide] | 20 to 200 | – | – | > 10000 | – | > 1000 | EC50 [1, 8]: > 10000 nM; EC50 [2, 11]: 100 to 1000 nM |
| CC(C)C[C@@H](C(=O)N1C[C@]2(C[C@H]1C#N)C(=O)Nc1ccccc1C2(F)F)N(C)C(=O)[C@H](C)NC(=O)C(F)(F)F [Example 43, (S)—N—((S)-1-((3R,5S)-5-cyano-4′,4′-difluoro-2′-oxo-1′,4′-dihydro-2′H-spiro[pyrrolidine-3,3′-quinolin]-1-yl)-4-methyl-1-oxopentan-2-yl)-N-methyl-2-(2,2,2-trifluoroacetamido)propanamide] | 20 to 200 | – | – | > 10000 | 1000 to 10000 | > 1000 | EC50 [2, 11]: 100 to 1000 nM |
| Cc1cc2n(n1)[C@@]1(C[C@@H](C#N)N(C(=O)[C@H](CC(C)C)N(C)C(=O)[C@H](C)NC(=O)C(F)(F)F)C1)C(=O)N2 [Example 44, (S)—N—((S)-1-((3R,5'S)-5′-cyano-6-methyl-2-oxo-1,2-dihydrospiro[imidazo[1,2-b]pyrazole-3,3′-pyrrolidin]-1′-yl)-4-methyl-1-oxopentan-2-yl)-N-methyl-2-(2,2,2-trifluoroacetamido)propanamide] | 20 to 200 | – | > 1000 | > 10000 | 100 to 1000 | > 1000 | – |
| CC(C)C[C@@H](C(=O)N1C[C@]2(C[C@H]1C#N)C(=O)Nc1ccnn12)N(C)C(=O)[C@H](C)NC(=O)C(F)(F)F [Example 45, (2S)—N-[(2S)-1-[(3R,5'S)-5′-cyano-2-oxo-1H-spiro[pyrazolo[1,5-a]imidazole-3,3′-pyrrolidin]-1′-yl]-4-methyl-1-oxopentan-2-yl]-N-methyl-2-(2,2,2-trifluoroacetamido)propanamide] | 20 to 200 | – | > 1000 | > 10000 | 100 to 1000 | > 1000 | – |
| CC(C)C[C@@H](C(=O)N1C[C@]2(C[C@H]1C#N)C(=O)NCc1nccn12)N(C)C(=O)[C@H](C)NC(=O)C(F)(F)F [Example 46, (S)—N—((S)-1-((5R,5'S)-5′-cyano-6-oxo-7,8-dihydro-6H-spiro[imidazo[1,2-a]pyrazine-5,3′-pyrrolidin]-1′-yl)-4-methyl-1-oxopentan-2-yl)-N-methyl-2-(2,2,2-trifluoroacetamido)propanamide] | 20 to 200 | – | > 1000 | > 10000 | – | > 1000 | EC50 [1, 8]: > 10000 nM |
